Measurements: US12252457B2, “Compositions and methods for reducing tactile dysfunction, anxiety, and social impairment” (President and Fellows of Harvard College, priority 2018, dated 2025)

Test system: large diameter neurons cultured from DRGs of Mecp2 and Shank3 mutant mice
Assay: Whole cell patch-clamp recordings of cultured DRG neurons
Format: cell-based, mouse
Details: 10 μM isoguvacine
Experimental: FIGS. 27A-27K are related to FIGS. 19A-19N. FIGS. 27A-27B: Representative traces from large diameter neurons cultured from DRGs of control (FIG. 27A) and Mecp2^STOP/y (FIG. 27B) mice during whole cell current clamp recordings, in which the minimal amount of current required to elicit an action potential in each neuron (rheobase, Rh), was determined in the absence or presence of 10 μm isoguvacine. FIG. 27C: Quantification of average Rh in large diameter neurons cultured from DRGs of control mice during a baseline period and then in presence of 10 μm isoguvacine. Repeated measures one-way ANOVA, post-hoc Tukey's test, *, p<0.05. FIG. 27D: Quantification of average Rh in large diameter neurons cultured from DRGs of control mice during a baseline period, followed application of 10 μm isoguvacine, then washout period. […] FIG. 27E: Quantification of average Rh in large diameter neurons cultured from DRGs of control and Mecp2^STOP/y mice during a baseline period and then in presence of 10 μm isoguvacine. […] FIG. 27F: Quantification of average Rh in large diameter neurons cultured from DRGs of control and Shank3B^+/− mice during a baseline period and then in presence of 10 μm isoguvacine. […] FIG. 27G: Quantification of total Ih density at each hyperpolarizing voltage step for large diameter neurons cultured from DRGs of control, Mecp2^STOP/y and Shank3B^+/− mutant mice. […]

O=C(O)C1=CCNCC1 [Isoguvacine, isoguvacine]
Ih (large diameter DRG neurons): without affecting Ih | hyperexcitability phenotype (rheobase) of large diameter DRG neurons (neurons from Mecp2 and Shank3 mutant mice): reduced the hyperexcitability phenotype
